Here are results for 2 compounds from US12655116B2, “Substituted isophthalic acid diamides” (Bayer Aktiengesellschaft, priority 2020, dated 2026).

Assay [1] deals with ALOMY. Description: Post-emergence herbicidal action against ALOMY. To be noted: Alopecurus myosuroides, 504 h, dosage 20 g/ha, visual assessment about 3 weeks after treatment vs untreated controls. It is filed as in vivo, Alopecurus myosuroides. The method, boiled down: (§1)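 Sandy loam, greenhouse; treatment 2–3 weeks after sowing, one-leaf stage. Aqueous suspension or emulsion from WP/EC sprayed on foliage (600–800 l/ha, 0.2% wetting agent). Readout: visual % action, ~3 weeks.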

The subject of assay [2] is AMARE. The assay can be described thus: Pre-emergence herbicidal action against AMARE. It is filed as in vivo, Amaranthus retroflexus. To be noted: Amaranthus retroflexus, 504 h, scored visually after 3 weeks vs untreated controls, 100% = plants have died, 0% = like control plants. The method, boiled down: (§2)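 Seeds sown in sandy loam, soil-covered; compound sprayed on soil surface pre-emergence. Application: WP/EC, 600–800 l/ha, 0.2% wetting agent. Readout: visual % damage at 3 weeks.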

The subject of another assay is LOLRI. The assay can be described thus: Pre-emergence herbicidal action against LOLRI. In kind it is in vivo, Lolium rigidum. To be noted: Lolium rigidum, 504 h, 80 g/ha. A digest of the protocol:
as §2

A further assay concerns MATIN. The assay can be described thus: Pre-emergence herbicidal action against MATIN. It is filed as in vivo, Matricaria inodora. To be noted: Tripleurospermum inodorum, 504 h; for pest or weed control at 80 g/ha: dosage 80 g/ha. The method, boiled down:
as §2

Assay [3] relates to ALOMY. Description: Pre-emergence herbicidal action against ALOMY. To be noted: Alopecurus myosuroides, 504 h, pre-emergence; for pest or weed control at 80 g/ha: scored visually after 3 weeks vs untreated controls (100% = plants have died, 0% = like control plants). It is filed as in vivo, Alopecurus myosuroides. The method, boiled down: as §2
For assay [4], the system named is AVEFA. Description: Post-emergence herbicidal action against AVEFA. In kind it is in vivo, Avena fatua. Particulars: Avena fatua, 504 h, 20 g/ha, visual assessment about 3 weeks after treatment, 100% = plants have died, 0% = like control plants. A digest of the protocol:
as §1

A further assay concerns ECHCG. Description: Pre-emergence herbicidal action against ECHCG. It is filed as in vivo, Echinochloa crus-galli. To be noted: Echinochloa crus-galli, 504 h, 80 g/ha. A digest of the protocol: as §2
In assay [5] the test system is AVEFA. The assay can be described thus: Pre-emergence herbicidal action against AVEFA. To be noted: Avena fatua, 504 h; 80 g/ha, pre-emergence. It is filed as in vivo, Avena fatua. The method, boiled down:
as §2

Assay [6] relates to ABUTH. The assay can be described thus: Pre-emergence herbicidal action against ABUTH. It is filed as in vivo, Abutilon theophrasti. To be noted: Abutilon theophrasti, 504 h. The method, boiled down:
as §2

The subject of assay [7] is AMARE. Description: Post-emergence herbicidal action against AMARE. In kind it is in vivo, Amaranthus retroflexus. To be noted: Amaranthus retroflexus, 504 h, 20 g/ha, visual assessment about 3 weeks after treatment, 100% = plants have died, 0% = like control plants. The method, boiled down: as §1
The subject of a further assay is VIOTR. The assay can be described thus: Pre-emergence herbicidal action against VIOTR. To be noted: Viola tricolor, 504 h, dosage 80 g/ha. It is filed as in vivo, Viola tricolor. The method, boiled down:
as §2

Assay [8] deals with SETVI. The assay can be described thus: Post-emergence herbicidal action against SETVI. Particulars: Setaria viridis, 504 h; for pest or weed control at 5 g/ha: dosage 5 g/ha; for pest or weed control at 20 g/ha: dosage 20 g/ha. In kind it is in vivo, Setaria viridis. A digest of the protocol: as §1
Assay [9] has as its system VERPE. The assay can be described thus: Pre-emergence herbicidal action against VERPE. In kind it is in vivo, Veronica persica. To be noted: Veronica persica, 504 h; for pest or weed control at 20 g/ha: dosage 20 g/ha; for pest or weed control at 80 g/ha: dosage 80 g/ha. A digest of the protocol:
as §2

The subject of assay [10] is VERPE. Description: Post-emergence herbicidal action against VERPE. Particulars: Veronica persica, 504 h, 20 g/ha. In kind it is in vivo, Veronica persica. The method, boiled down: as §1
For assay [11], the system named is SETVI. The assay can be described thus: Pre-emergence herbicidal action against SETVI. Particulars: Setaria viridis, 504 h; for pest or weed control at 80 g/ha: dosage 80 g/ha. In kind it is in vivo, Setaria viridis. The method, boiled down: as §2
Assay [12] deals with ABUTH. Description: Post-emergence herbicidal action against ABUTH. It is filed as in vivo, Abutilon theophrasti. To be noted: Abutilon theophrasti, 504 h, visual assessment about 3 weeks after treatment vs untreated controls; for pest or weed control at 20 g/ha: dosage 20 g/ha. The method, boiled down: as §1

Regarding `Cn1nnnc1NC(=O)c1ccc(Br)c(C(=O)NC2CC2)c1Br` [Example 1-344], the pest or weed control at 20 g/ha with ALOMY [1] came to 100%; in the assay on AMARE [2], 100%; in the assay with MATIN (dosage 20 g/ha), 90%; in the assay on ALOMY [3] (20 g/ha, scored visually after 3 weeks, 100% = plants have died, 0% = like control plants), 90%; in the assay on AVEFA [4], 80%; in the assay on ABUTH [6] (dosage 20 g/ha, scored visually after 3 weeks vs untreated controls, 100% = plants have died, 0% = like control plants, read-out: Pre-emergence action against ABUTH (herbicidal activity in percent)) it was 90%. In addition, the pest or weed control at 20 g/ha was determined as 100% in the assay with AMARE [7]; 90% with SETVI [8]; 80% in the assay with VERPE [9]; 90% with VERPE [10]; 90% with ABUTH [12]. Moreover, the pest or weed control at 80 g/ha in the assay with AMARE [2] was 100%; with LOLRI, 90%; in the assay on MATIN, 100%; with ALOMY [3], 100%; in the assay with ECHCG it was 90%; in the assay with AVEFA [5], 90%. The pest or weed control at 80 g/ha with ABUTH [6] (80 g/ha, scored visually after 3 weeks vs untreated controls (100% = plants have died, 0% = like control plants)) was found to be 100%; with VIOTR it was 100%; with VERPE [9] it was 90%; in the assay on SETVI [11] it was 100%. Moreover, the pest or weed control at 5 g/ha with SETVI [8] was determined as 80%.

For `CNC(=O)c1c(Cl)ccc(C(=O)Nc2nnnn2C)c1Br` [Example 1-349], the pest or weed control at 20 g/ha in the assay on ALOMY [1] was 80%; in the assay with AMARE [2], 100%; in the assay with AVEFA [4], 80%; in the assay with AMARE [7], 100%; with SETVI [8], 90%; with VERPE [9] it was 90%. The pest or weed control at 20 g/ha in the assay on VERPE [10] is 80%; in the assay on SETVI [11] (dosage 20 g/ha), 90%; in the assay on ABUTH [12] it was 90%. In addition, the pest or weed control at 80 g/ha in the assay on AMARE [2] is 100%; in the assay on LOLRI it was 90%; in the assay with MATIN, 90%; in the assay on ALOMY [3] it was 100%; in the assay with ECHCG, 90%; with AVEFA [5], 100%. Moreover, the pest or weed control at 80 g/ha with VIOTR was 100%; in the assay with VERPE [9], 90%; in the assay on SETVI [11], 100%. Also, the figures for the pest or weed control at 5 g/ha in the assay on SETVI [8] and with ABUTH [12] (dosage 5 g/ha) were 90% and 80%, respectively.
